The values that follow come from US10335423B2, “Inhibition of HIV infection through chemoprophylaxis” (THE UNITED STATES OF AMERICA, as represented by the …, priority 2006, dated 2019).

Counter-ions that a name gives are not always drawn. Like-named read-outs stand apart in the source and are kept apart here.

One data set in a line: in vivo. Conditions: rhesus monkey. The procedure: A dose of 22 mg/kg of tenofovir disoproxil fumarate (TDF) is given orally and 20 mg/kg of emtricitabine (FTC) given orally or subcutaneously to one group of adult male rhesus macaques.
In data set [1] the test system is SHIVSF162P3. Briefly: Repeated weekly rectal SHIV162p3 exposures under once daily prophylaxis (survival curves). The class given is in vivo, rhesus macaques. The procedure:
A chimeric envelope SHIVSF162P3 isolate is used to inoculate the macaques. SHIVSF162P3 is a construct that contains the tat, rev, and env coding regions of HIV-1SF162 in a background of SIVmac239. This isolate was obtained from the National Institutes of Health (NIH) AIDS Research and Reference Reagent Program.^7,8 Virus exposures are performed 2 hours after drug treatment, and involved non-traumatic inoculation of 1 mL of SHIVSF162P3 (10 TCID50 or […]) into the rectal vault via a sterile gastric feeding tube.^9 Anesthetized macaques remained recumbent for at least 15 min after each intra-rectal inoculation.
The exact log-rank test is used for a discrete-time survival analysis of the treatment and control groups, with use of the number of inoculations as the time variable. The Cox proportional hazards model is used to estimate the relative hazard ratio (HR). Percent protection is calculated from the HR value using the formula: (1-1/HR)×100. All statistical analyses for calculation of the efficacy of the different interventions are performed using SAS software (version 9.1; SAS Institute) and StatXact software (version 6.3; Cytel).
Macaques are exposed rectally once weekly for up to 14 weeks to SHIV162p3 which contains an R5 tropic HIV-1 envelope that resembles naturally transmitted viruses. The SHIV162p3 challenge dose is 10 TCID50 or 7.6×10^5 RNA copies which is similar to HIV-1 RNA levels in semen during acute infection in humans.^11 Virus exposures are terminated when a macaque became infected. […] Three prophylactic drug treatments of increasing drug potency are each given once daily to a group of six macaques. Animals in Group 1 were treated subcutaneously with 20 mg/kg of FTC alone. Animals in Group 2 received orally a combination of FTC (20 mg/kg) and TDF (22 mg/kg). […] The rate of infection in each group is compared with that seen in 18 untreated control macaques (9 real time and 9 historical controls).
All treated macaques received the corresponding drugs 7 to 9 days prior to the first virus inoculation to achieve steady-state plasma levels. Treated animals that remained uninfected during the 14 challenges received 28 days of post-exposure prophylaxis after the last challenge. Protection was defined as absence of persistent viremia and seroconversion.
Data with TDF (20 mg/kg) is also provided for comparison.

The test system of data set [2] is SHIVSF162P3. Briefly: SHIV plasma viral load (real-time PCR) in breakthrough infections. The class given is in vivo, rhesus macaques. The procedure:
Plasma RNA is quantified using a real-time PCR assay as previously described.^5 This assay has a sensitivity of detection of 50 RNA copies/ml or 10 copies of a pVp1 plasmid carrying the SIVmac239 RT gene. HIV-1 RNA is extracted from 1 mL of plasma using the NucliSens extraction method (bioMerieux). A known amount of virus particles (3×10^5) from an HIV-1 CM240 virus stock is added to each sample prior to extraction to control for the efficiency of extraction. Reverse transcription is performed using 10 microliters (μl) of extracted RNA and the 2-step TaqMan Gold reverse-transcriptase (RT)—PCR kit (Applied Biosystems) according to the manufacturer's instructions. PCR reactions are performed as described using an ABI 7000 […] (Applied Biosystems). Virus loads are calculated from a standard curve generated with known amount of virus particles. All primers and probes used for SIVmac239 and HIV-1 CM240 have been reported elsewhere.^5 HIV-1 CM240 is obtained from the National Institutes of Health (NIH) AIDS Research and Reference Reagent Program.
Since the dynamics of breakthrough infections that occur during inventive prophylaxis and drug resistance emergence are unknown, the 6 infected animals from Groups 1 and 2 are followed under continued drug treatment. FIG. 3 compares the virus load kinetics in the 6 breakthrough infections with those in 12 untreated macaques that had sufficient follow-up samples. The mean peak viremia in the 6 treated macaques was 4.9±0.5 log10 RNA copies/ml, 2.0 log10 lower than in untreated controls (6.9±0.3 log10 RNA). […] In contrast, all 12 untreated macaques had detectable virus loads during a median follow-up period of 7 weeks (range=5-36 weeks). The arrow in FIG. 4 denotes the first detectable antibody response. Grey circles indicate detectable M184V/I mutation; wild type sequences are shown in black full circles. Open circles are provided for data points not genotyped.
(In general: In qPCR the cycle at which signal appears reflects the starting amount.)

For data set [3] the following is noted: human, in vivo, cited from earlier work.
In data set [4] the test system is simian immunodeficiency virus (SIV). Conditions: monkey models challenged with SIV; cited from earlier work.
The test system of another data set is SHIV. Conditions: oral daily dosing, dose equivalent to that used in humans; cited from earlier work.

With `Nc1nc(=O)n([C@@H]2CS[C@H](CO)O2)cc1F` [FTC, emtricitabine], the AUC (usually the area under the concentration-time curve, a measure of exposure) in “in vivo” (male, 20 mg/kg) is 11000 ng·h/mL; in data set [3] (po, 200 mg), 10000 ± 3120 ng·h/mL. Also, the “plasma FTC levels after subcutaneous administration” value in “in vivo” is reported as “comparable to those achieved during oral administration”. Besides, the “exposure with first detectable viral RNA” value was 13 in the data set on SHIVSF162P3 [1] (animal AG-07), 10 in the data set with SHIVSF162P3 [1] (animal AG-46), 5 with SHIVSF162P3 [1] (animal AG-80) and 12 in the data set on SHIVSF162P3 [1] (animal AH-04). Further, the “Cox proportional hazard ratio [HR] (fold reduction of infection compared to controls)” value in the data set with SHIVSF162P3 [1] (compared to 18 untreated controls) turned out to be 3.8. Further, the “infection / survival analysis compared to untreated controls” value in the data set with SHIVSF162P3 [1] (compared to untreated controls) was “statistically significant difference”. In addition, in the data set with SHIVSF162P3 [1] (of 6 macaques per group, once daily treatment, up to 14 rectal exposures), the “macaques that became infected” value was found to be 4. For the same molecule, the “macaques remaining uninfected / protected after 14 exposures” value with SHIVSF162P3 [1] (of 6 macaques per group, once daily treatment, weekly rectal SHIV162p3) is 2. Also, the “protection compared with TDF alone” value with SHIVSF162P3 [1] (versus 4 animals previously receiving TDF, difference not statistically significant (p=0.5)) is “higher than that previously seen in 4 animals receiving TDF”. The results for the “time after the peak in viremia to undetectable virus loads” value in the data set on SHIVSF162P3 [2] (animal AG-07), with SHIVSF162P3 [2] (animal AG-80) and in the data set with SHIVSF162P3 [2] (animal AH-04) were 7 weeks, 3 weeks and 4 weeks, respectively. In addition, the viremia during follow-up result with SHIVSF162P3 [2] (for up to 20 weeks, animals AG-80, AH-04, AG-07, AG-81) is given as “consistently low or undetectable”.
Turning to `CC(C)OC(=O)OCOP(=O)(CO[C@H](C)Cn1cnc2c(N)ncnc21)OCOC(=O)OC(C)C` [TDF, tenofovir disoproxil fumarate], in the data set “in vivo” (male, po, 22 mg/kg), the “area-under the plasma concentration-time curve over a 24 h interval (AUC)” value stood at 4490 ng·h/mL. Also, the AUC in data set [3] (300 mg) is 5020 ng·h/mL.
Turning to `C[C@H](Cn1cnc2c(N)ncnc21)OCP(=O)(O)O` [tenofovir], in data set [4], the prophylactic activity result is recorded as “Prophylactic activity has been demonstrated”. For the same molecule, in the data set on SHIV, the “protection against rectal SHIV transmission” value is on record as “partially protective”.
